Source: the NIST ThermoML archive (doi:10.1016/j.jct.2003.09.013)
Several values for one entry are separate records, joined by “and”; a condition that tells them apart may be missing. Equal values may be shown once.

Assay: mn = molality of the nth substance listed, in mol/kg
Settings: 350 kPa, Liquid; for molar volume: Vibrating tube method; for apparent molar heat capacity: Extra sensitive DSC

O=[N+]([O-])[O-].O=[N+]([O-])[O-].[Pb+2] [lead(II) nitrate] + O
Settings	apparent molar heat capacity [J/K/mol]	apparent molar volume	molar volume
278.15 K, m1 = 0.01959	–	3.11e-05 m3/mol	3.11e-05 m3/mol
278.15 K, m1 = 0.01983	–	3.8e-05 m3/mol	3.8e-05 m3/mol
278.15 K, m1 = 0.02999	–	3.7e-05 m3/mol and 3.36e-05 m3/mol	3.7e-05 m3/mol and 3.36e-05 m3/mol
278.15 K, m1 = 0.04862	–	3.8e-05 m3/mol	3.8e-05 m3/mol
278.15 K, m1 = 0.05035	–	3.73e-05 m3/mol	3.73e-05 m3/mol
278.15 K, m1 = 0.1004	–	3.52e-05 m3/mol and 4.01e-05 m3/mol	4.01e-05 m3/mol and 3.52e-05 m3/mol
278.15 K, m1 = 0.2435	–	3.781e-05 m3/mol	3.781e-05 m3/mol
278.15 K, m1 = 0.392	–	3.95e-05 m3/mol	3.95e-05 m3/mol
278.15 K, m1 = 0.4885	–	4.08e-05 m3/mol	4.08e-05 m3/mol
283.15 K, m1 = 0.01959	–	3.4e-05 m3/mol	3.4e-05 m3/mol
283.15 K, m1 = 0.01983	–	3.8e-05 m3/mol	3.8e-05 m3/mol
283.15 K, m1 = 0.02999	–	3.9e-05 m3/mol and 3.62e-05 m3/mol	3.9e-05 m3/mol and 3.62e-05 m3/mol
283.15 K, m1 = 0.04862	–	3.9e-05 m3/mol	3.9e-05 m3/mol
283.15 K, m1 = 0.05035	–	3.93e-05 m3/mol	3.93e-05 m3/mol
283.15 K, m1 = 0.1004	–	4.14e-05 m3/mol and 3.73e-05 m3/mol	4.14e-05 m3/mol and 3.73e-05 m3/mol
283.15 K, m1 = 0.2435	–	3.976e-05 m3/mol	3.976e-05 m3/mol
283.15 K, m1 = 0.392	–	4.126e-05 m3/mol	4.126e-05 m3/mol
283.15 K, m1 = 0.4885	4.5	4.243e-05 m3/mol	4.243e-05 m3/mol
288.15 K, m1 = 0.01959	–	3.508e-05 m3/mol	3.508e-05 m3/mol
288.15 K, m1 = 0.01983	–	3.8e-05 m3/mol	3.8e-05 m3/mol
288.15 K, m1 = 0.02999	–	3.9e-05 m3/mol and 3.71e-05 m3/mol	3.9e-05 m3/mol and 3.71e-05 m3/mol
288.15 K, m1 = 0.04862	–	3.96e-05 m3/mol	3.96e-05 m3/mol
288.15 K, m1 = 0.05035	–	4.05e-05 m3/mol	4.05e-05 m3/mol
288.15 K, m1 = 0.1004	–	4.12e-05 m3/mol and 3.851e-05 m3/mol	4.12e-05 m3/mol and 3.851e-05 m3/mol
288.15 K, m1 = 0.2435	–	4.073e-05 m3/mol	4.073e-05 m3/mol
288.15 K, m1 = 0.392	–	4.246e-05 m3/mol	4.246e-05 m3/mol
288.15 K, m1 = 0.4885	12.8	4.323e-05 m3/mol	4.323e-05 m3/mol
293.15 K, m1 = 0.4885	18.6	–	–
298.15 K, m1 = 0.01959	–	3.86e-05 m3/mol	3.86e-05 m3/mol
298.15 K, m1 = 0.01983	–	4.1e-05 m3/mol	4.1e-05 m3/mol
298.15 K, m1 = 0.02999	–	4.19e-05 m3/mol and 3.835e-05 m3/mol	4.19e-05 m3/mol and 3.835e-05 m3/mol
298.15 K, m1 = 0.04862	–	4.22e-05 m3/mol	4.22e-05 m3/mol
298.15 K, m1 = 0.05035	–	4.377e-05 m3/mol	4.377e-05 m3/mol
298.15 K, m1 = 0.1004	–	4.33e-05 m3/mol and 4.134e-05 m3/mol	4.33e-05 m3/mol and 4.134e-05 m3/mol
298.15 K, m1 = 0.2435	–	4.368e-05 m3/mol	4.368e-05 m3/mol
298.15 K, m1 = 0.392	2.9	4.54e-05 m3/mol	4.54e-05 m3/mol
298.15 K, m1 = 0.4885	22.3	4.567e-05 m3/mol	4.567e-05 m3/mol
303.15 K, m1 = 0.392	6	–	–
303.15 K, m1 = 0.4885	24.9	–	–
308.15 K, m1 = 0.01959	–	4.027e-05 m3/mol	4.027e-05 m3/mol
308.15 K, m1 = 0.01983	–	4.04e-05 m3/mol	4.04e-05 m3/mol
308.15 K, m1 = 0.02999	–	4.2e-05 m3/mol and 3.7e-05 m3/mol	4.2e-05 m3/mol and 3.7e-05 m3/mol
308.15 K, m1 = 0.04862	–	4.27e-05 m3/mol	4.27e-05 m3/mol
308.15 K, m1 = 0.05035	–	4.631e-05 m3/mol	4.631e-05 m3/mol
308.15 K, m1 = 0.1004	–	4.39e-05 m3/mol and 4.262e-05 m3/mol	4.39e-05 m3/mol and 4.262e-05 m3/mol
308.15 K, m1 = 0.2435	–	4.56e-05 m3/mol	4.56e-05 m3/mol
308.15 K, m1 = 0.392	8.2	4.698e-05 m3/mol	4.698e-05 m3/mol
308.15 K, m1 = 0.4885	26.6	4.739e-05 m3/mol	4.739e-05 m3/mol
313.15 K, m1 = 0.392	9.6	–	–
313.15 K, m1 = 0.4885	27.7	–	–
318.15 K, m1 = 0.01959	–	4.413e-05 m3/mol	4.413e-05 m3/mol
318.15 K, m1 = 0.01983	–	4.13e-05 m3/mol	4.13e-05 m3/mol
318.15 K, m1 = 0.02999	–	4.23e-05 m3/mol and 3.71e-05 m3/mol	4.23e-05 m3/mol and 3.71e-05 m3/mol
318.15 K, m1 = 0.04862	–	4.32e-05 m3/mol	4.32e-05 m3/mol
318.15 K, m1 = 0.05035	–	4.763e-05 m3/mol	4.763e-05 m3/mol
318.15 K, m1 = 0.1004	–	4.49e-05 m3/mol and 4.36e-05 m3/mol	4.49e-05 m3/mol and 4.36e-05 m3/mol
318.15 K, m1 = 0.2435	–	4.709e-05 m3/mol	4.709e-05 m3/mol
318.15 K, m1 = 0.392	10.3	4.824e-05 m3/mol	4.824e-05 m3/mol
318.15 K, m1 = 0.4885	27.8	4.881e-05 m3/mol	4.881e-05 m3/mol
323.15 K, m1 = 0.392	10.5	–	–
323.15 K, m1 = 0.4885	27.8	–	–
328.15 K, m1 = 0.01959	–	4.522e-05 m3/mol	4.522e-05 m3/mol
328.15 K, m1 = 0.01983	–	4.163e-05 m3/mol	4.163e-05 m3/mol
328.15 K, m1 = 0.02999	–	4.215e-05 m3/mol and 3.58e-05 m3/mol	4.215e-05 m3/mol and 3.58e-05 m3/mol
328.15 K, m1 = 0.04862	–	4.365e-05 m3/mol	4.365e-05 m3/mol
328.15 K, m1 = 0.05035	–	4.871e-05 m3/mol	4.871e-05 m3/mol
328.15 K, m1 = 0.1004	–	4.523e-05 m3/mol and 4.39e-05 m3/mol	4.523e-05 m3/mol and 4.39e-05 m3/mol
328.15 K, m1 = 0.2435	–	4.806e-05 m3/mol	4.806e-05 m3/mol
328.15 K, m1 = 0.392	10.3	4.911e-05 m3/mol	4.911e-05 m3/mol
328.15 K, m1 = 0.4885	27.3	4.978e-05 m3/mol	4.978e-05 m3/mol
333.15 K, m1 = 0.392	10	–	–
333.15 K, m1 = 0.4885	26.8	–	–
338.15 K, m1 = 0.01959	–	4.5e-05 m3/mol	4.5e-05 m3/mol
338.15 K, m1 = 0.01983	–	4.114e-05 m3/mol	4.114e-05 m3/mol
338.15 K, m1 = 0.02999	–	4.265e-05 m3/mol and 3.58e-05 m3/mol	4.265e-05 m3/mol and 3.58e-05 m3/mol
338.15 K, m1 = 0.04862	–	4.42e-05 m3/mol	4.42e-05 m3/mol
338.15 K, m1 = 0.05035	–	4.942e-05 m3/mol	4.942e-05 m3/mol
338.15 K, m1 = 0.1004	–	4.599e-05 m3/mol and 4.45e-05 m3/mol	4.599e-05 m3/mol and 4.45e-05 m3/mol
338.15 K, m1 = 0.2435	–	4.89e-05 m3/mol	4.89e-05 m3/mol
338.15 K, m1 = 0.392	9.1	4.981e-05 m3/mol	4.981e-05 m3/mol
338.15 K, m1 = 0.4885	25.9	5.059e-05 m3/mol	5.059e-05 m3/mol
343.15 K, m1 = 0.392	8	–	–
343.15 K, m1 = 0.4885	24.7	–	–
348.15 K, m1 = 0.01959	–	4.33e-05 m3/mol	4.33e-05 m3/mol
348.15 K, m1 = 0.02999	–	3.57e-05 m3/mol	3.57e-05 m3/mol
348.15 K, m1 = 0.05035	–	4.93e-05 m3/mol	4.93e-05 m3/mol
348.15 K, m1 = 0.1004	–	4.662e-05 m3/mol and 4.47e-05 m3/mol	4.662e-05 m3/mol and 4.47e-05 m3/mol
348.15 K, m1 = 0.2435	–	4.92e-05 m3/mol	4.92e-05 m3/mol
348.15 K, m1 = 0.392	6.7	5.034e-05 m3/mol	5.034e-05 m3/mol
348.15 K, m1 = 0.4885	23.3	5.112e-05 m3/mol	5.112e-05 m3/mol
353.15 K, m1 = 0.392	5.2	–	–
353.15 K, m1 = 0.4885	22	–	–
358.15 K, m1 = 0.01959	–	4.397e-05 m3/mol	4.397e-05 m3/mol
358.15 K, m1 = 0.02999	–	3.55e-05 m3/mol	3.55e-05 m3/mol
358.15 K, m1 = 0.05035	–	4.866e-05 m3/mol	4.866e-05 m3/mol
358.15 K, m1 = 0.1004	–	4.48e-05 m3/mol and 4.513e-05 m3/mol	4.48e-05 m3/mol and 4.513e-05 m3/mol
358.15 K, m1 = 0.2435	–	4.929e-05 m3/mol	4.929e-05 m3/mol
358.15 K, m1 = 0.392	3.8	5.016e-05 m3/mol	5.016e-05 m3/mol
358.15 K, m1 = 0.4885	20.5	5.11e-05 m3/mol	5.11e-05 m3/mol
363.15 K, m1 = 0.392	2.1	–	–
363.15 K, m1 = 0.4885	18.8	–	–
368.15 K, m1 = 0.01959	–	4.451e-05 m3/mol	4.451e-05 m3/mol
368.15 K, m1 = 0.02999	–	3.49e-05 m3/mol	3.49e-05 m3/mol
368.15 K, m1 = 0.05035	–	4.751e-05 m3/mol	4.751e-05 m3/mol
368.15 K, m1 = 0.1004	–	4.02e-05 m3/mol and 4.44e-05 m3/mol	4.02e-05 m3/mol and 4.44e-05 m3/mol
368.15 K, m1 = 0.2435	–	4.902e-05 m3/mol	4.902e-05 m3/mol
368.15 K, m1 = 0.392	–	4.883e-05 m3/mol	4.883e-05 m3/mol
368.15 K, m1 = 0.4885	16.9	5.055e-05 m3/mol	5.055e-05 m3/mol
373.15 K, m1 = 0.4885	14.8	–	–
378.15 K, m1 = 0.4885	12.1	–	–
383.15 K, m1 = 0.4885	9.5	–	–
388.15 K, m1 = 0.4885	6.8	–	–
393.15 K, m1 = 0.4885	3.2	–	–
